Experimental data: patent US20220401331A1, “PERSONAL CLEANSING COMPOSITIONS, METHODS AND USES” (The Procter & Gamble Company, priority 2021, published 2022)

Assay: Observations of appearance, structure and phase separation (Centrifuge Test, standing)
Assay type: physicochemical
Settings: gel structure, phase separation

observations: did not form lamellar phase
Substance: non-ethoxylated sodium tridecyl sulfate [ST0S]
